Results on 3 molecules are retold here after patent US12083130B2, “Combination hormone formulations and therapies” (Caren Pharmaceuticals, Inc., priority 2019, dated 2024).

In one series the test system is hypogonadal men. The following applies: 12-year study, hypogonadal men who received T; […] for men who did not; cited from earlier work.
The test system of the next series is Aβ levels. The following applies: mice, cyclic administration, high levels 10 days in a row every 30 days; cited from earlier work.
Series [1] has as its system cortical rat neurons intoxicated with human AβO 1-42. The series can be described thus: Example 10: neuroprotection of cortical neurons intoxicated with human AβO 1-42. The series is classed as cell-based. The following applies: BDNF 50 ng/ml; human AβO 1-42 10 μM, 24 h. The source says: This is a prophetic example. The 40 and 42 amino acid forms are the most abundant B-amyloid (Aβ) peptide forms found in AD brain senile plaques, as disclosed herein. However, the number of senile plaques in a particular region of the AD brain correlates poorly with the local extent of neuron death or synaptic loss, or with cognitive impairment (Sisodia et al., 1990). Studies have shown a robust correlation between the soluble human Aβ 1-42 oligomer (AβO) levels and the extent of synaptic loss and severity of cognitive impairment (Sakono et al., 2010). This example investigates the neuroprotective effect of the composition prepared as described in Example 2 on cortical neurons incubated for 24 hours in the presence of AβO, an in vitro model of AD (Callizot et al., 2013). Brain-derived neurotrophic factor (BDNF) is used as a positive control in this study.
Cortical rat neurons are cultured at +37° C. in a humidified air/CO2 (95/5) atmosphere. After 11 days of culture, cortical neurons are intoxicated with human AβO 1-42 at 10 μM for 24 hrs. […]
The total number of cortical neurons that survive after 24 h incubation are counted to determine the end point evaluation. […]

For the molecule `C[C@]12CC[C@H]3[C@@H](CCC4=CC(=O)CC[C@@]43C)[C@@H]1CC[C@@H]2O` [T, testosterone], the “rate of prostate cancer” value in the series with hypogonadal men was 2.7%.
Consider `CC(=O)[C@H]1CC[C@H]2[C@@H]3CCC4=CC(=O)CC[C@]4(C)[C@H]3CC[C@]12C` [progesterone], for which the Aβ levels entry in the series with Aβ levels was “decreased Aβ levels”.

B1: BDNF: Brain-derived neurotrophic factor, positive control (protein, UniProt P23560 19-247, looked up)
Neurotrophic factor BDNF …: APMKEANIRGQGGLAYPGVRTHGTLESVNGPKAGSRGLTSLADTFEHVIEELLDEDQKVRPNEENNKDADLYTSRVMLSSQVPLEPPLLFLLEEYKNYLDAANMSMRVRRHSDPARRGELSVCDSISEWVTAADKKTAVDMSGGTVTVLEKVPVSKGQLKQYFYETKCNPMGYTKEGCRGIDKRHWNSQCRTTQSYVRALTMDSKKRIGWRFIRIDTSCVCTLTIKRGR
Consider B1, for which the “cell death resulting from AβO” value in series [1] is “inhibits cell death resulting from AβO”.
